Reference: US20060127317A1, “Nasallly applicable pharmaceutical preparation and the production thereof” (priority 2002, published 2006)

Test system: ciliated epithelium of the trachea of chicken embryos
Assay: standard test for examining ciliary function (ciliary frequency of tracheal ciliated epithelium tissue pieces)
Type: cell-based
Conditions: orienting tests; compared with results of table 2
Text: In a standard test for examining ciliary function, a conventional preparation for nasal administration having a phosphate/citrate buffer and benzalkonium chloride as preservative was compared in each case with a preparation of the invention having malic acid as buffer and benzalkonium chloride as preservative.
Pieces of tissue from ciliated epithelium of the trachea of chicken embryos are employed in the tests on which the comparison is based, reference being made for details of the tests to S. G. Romejn et al., Int. J. of Pharmac. 135 (1996) 137-145 and van De Donk et al., Rhinology, 20 (1982) 81-87.
The self-cleaning of the nasal mucosa is then simulated by washing out the respective solutions and adding Ringer's solution for 45 min.
After exposure for 15 min, the ciliary frequency is reduced distinctly less by the exemplary solutions with malic acid buffer than by the reference solutions. The self-cleaning of the nasal mucosa is then simulated by washing out the test solutions and adding Ringer's solution for 45 min. A distinctly better recovery of the ciliary beating force, which extends to more than ¾ of the initial beating force (of 100%), is achieved thereby with the exemplary solutions with malic acid buffer. […]

Row | reduction in ciliary activity and regeneration of the cilia (result in words) | Molecule
1 | similar | calcitonin [calcitonin (from salmon)]
2 | similar | O=C(O)c1cc(=O)c2c(OCC(O)COc3cccc4oc(C(=O)O)cc(=O)c34)cccc2o1 [cromoglicic acid]
